Experimental data as given in US20220348590A1, “CYCLOOXYGENASE-2 INHIBITORS AND USES THEREOF” (The Board Institute, Inc., priority 2019, published 2022).
Like-named read-outs stand apart in the source and are kept apart here.

Assays:
[1] = molecular target: T1, human recombinant COX2 (hCOX2) (UniProt P35354); test: LCMS-based COX2 enzymatic inhibition assay (PGE2 quantification); format: biochemical; set-up: COX2 2 minutes pge2/pge2d4 area ratio Avg; other: 2 minutes; readout pge2/pge2d4 area ratio; average; COX2 2 minutes pge2/pge2d4 area ratio Avg; LLE; average LLE; COX2 2 minutes pge2 area (counts) Avg; readout pge2 area (counts); other: 2 min; "ovine COX2 (oCOX2), human recombinant COX2 (hCOX2)"; details: 2 minutes; for COX2 2 minutes pge2/pge2d4 area ratio Avg. LLE / COX2 2 minutes pge2 area (counts) Avg. LLE: average LLE; for IC50: average
T1 sequence (P35354 1-604): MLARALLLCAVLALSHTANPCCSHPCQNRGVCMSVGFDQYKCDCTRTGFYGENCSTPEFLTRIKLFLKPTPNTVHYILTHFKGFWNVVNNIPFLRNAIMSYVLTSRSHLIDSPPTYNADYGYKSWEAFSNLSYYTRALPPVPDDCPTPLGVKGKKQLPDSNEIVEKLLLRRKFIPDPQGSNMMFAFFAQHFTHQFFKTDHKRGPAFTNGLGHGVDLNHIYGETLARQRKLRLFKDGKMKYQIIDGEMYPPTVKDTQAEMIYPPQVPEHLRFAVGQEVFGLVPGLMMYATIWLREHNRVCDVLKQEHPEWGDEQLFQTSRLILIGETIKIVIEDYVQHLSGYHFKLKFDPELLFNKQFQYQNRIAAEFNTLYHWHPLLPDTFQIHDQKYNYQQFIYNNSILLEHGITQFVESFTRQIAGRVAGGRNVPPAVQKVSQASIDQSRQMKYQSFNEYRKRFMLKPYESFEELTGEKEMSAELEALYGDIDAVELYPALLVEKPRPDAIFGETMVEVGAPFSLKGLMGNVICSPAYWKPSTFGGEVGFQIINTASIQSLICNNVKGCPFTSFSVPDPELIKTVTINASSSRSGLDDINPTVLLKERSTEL
In short: (§1)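 PGE2 formed from arachidonic acid (final 5 μM, 2 min) was measured by LC-MS-MS against DMSO controls. Enzyme (oCOX-1 0.1 μg or hCOX2 0.2 μg) with hematin/epinephrine cofactors at pH 8.0 was given 10 min at 37 °C with compound first. Twelve-point curves run three times gave IC50.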

ovine COX-1 (oCOX-1) = molecular target: T2, ovine COX-1 (oCOX-1) (Ovis aries, UniProt P05979); test: LCMS-based COX-1 enzymatic inhibition assay (PGE2 quantification); format: biochemical
T2 construct: purchased Cayman Chemicals (Ann Arbor, Mich.)
T2 sequence (P05979 25-600): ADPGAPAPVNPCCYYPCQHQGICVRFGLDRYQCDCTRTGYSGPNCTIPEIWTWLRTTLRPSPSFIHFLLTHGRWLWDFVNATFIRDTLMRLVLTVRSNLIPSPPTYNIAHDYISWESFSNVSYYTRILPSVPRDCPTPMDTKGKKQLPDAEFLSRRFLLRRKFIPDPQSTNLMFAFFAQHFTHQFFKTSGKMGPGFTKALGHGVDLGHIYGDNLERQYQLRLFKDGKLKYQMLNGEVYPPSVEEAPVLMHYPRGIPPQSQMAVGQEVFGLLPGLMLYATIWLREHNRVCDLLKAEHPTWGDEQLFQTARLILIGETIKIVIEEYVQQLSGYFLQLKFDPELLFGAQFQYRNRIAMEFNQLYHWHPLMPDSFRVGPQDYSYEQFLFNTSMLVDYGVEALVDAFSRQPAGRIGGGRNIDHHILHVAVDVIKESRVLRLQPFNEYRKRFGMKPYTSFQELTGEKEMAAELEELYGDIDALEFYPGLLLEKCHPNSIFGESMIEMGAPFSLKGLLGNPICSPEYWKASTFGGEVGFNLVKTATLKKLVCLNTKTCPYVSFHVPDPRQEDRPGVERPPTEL
In short: as §1

[2] = readout pge2/pge2d4 area ratio, read-out: COX2 2 minutes pge2/pge2d4 area ratio Avg. IC50
[3] = readout pge2 area (counts), read-out: COX2 2 minutes pge2 area (counts) Avg. IC50
[4] = 10 minutes, head of this section not shown, inferred
[5] = 10 minutes, pge2 area (counts), head of this section not shown, inferred
[6] = 10 minutes, pge2 area (counts), head of this section not shown, inferred, read-out: COX1 10 minutes pge2 area (counts) Avg. IC50
[7] = 10 minutes, readout pge2/pge2d4 area ratio, average, read-out: COX1 10 minutes pge2/pge2d4 area ratio Avg. IC50

Structure (SMILES) | COX2 2 minutes pge2/pge2d4 area ratio Avg. LLE ([1]; readout pge2/pge2d4 area ratio) | IC50 [1, 2] [nM] | COX2 2 minutes pge2 area (counts) Avg. LLE ([1]; readout pge2 area (counts)) | IC50 [1, 3] [nM] | COX1 10 minutes pge2/pge2d4 area ratio Avg. LLE (ovine COX-1 (oCOX-1); [4]) | COX1 10 minutes pge2 area (counts) Avg. LLE (ovine COX-1 (oCOX-1); [5]) | IC50 (ovine COX-1 (oCOX-1); [6]) [nM] | IC50 (ovine COX-1 (oCOX-1); [7]) [nM] | IC50 (ovine COX-1 (oCOX-1)) [nM]
COc1ncc(-c2ccc(S(N)(=O)=O)cc2)nc1NCc1cccs1 [Compound 64] | 5.595 | 36.1 | 5.591 | 36.6 | 3.4205 | 3.473 | 4760 | 5360 | 
CS(=O)(=O)c1ccc(-c2cncc(/C=C\c3cccs3)n2)cc1 [Compound 65] | 4.704 | 37 | 4.681 | 39 | 1.544 | 1.612 | 38000 |  | 52000
COc1ccc(NCc2ccoc2)nc1-c1ccc(S(C)(=O)=O)cc1 [Compound 66] | 4.554 | 37.3 | 4.505 | 42 | 1.364 | 1.364 |  |  | 52000
CS(=O)(=O)c1ccc(-c2cc3ccoc3c(NCc3cccs3)n2)cc1 [Compound 67] | 3.0886 | 38.9 | 3.016 | 45.2 | 0.3787 | 0.343 | 21200 | 19600 | 
CS(=O)(=O)c1ccc(-c2ncc3ccn(Cc4cccs4)c3n2)cc1 [Compound 71] | 3.165 | 41.2 | 3.167 | 41.6 | 0.04679 |  |  | 49300 | 
CS(=O)(=O)c1ccc(-n2ccc3ccc(Nc4ccccc4)nc32)cc1 [Compound 72] | 2.94 | 41.4 | 2.995 | 34.2 | 0.2541 | 0.02014 | 30200 | 17600 | 
CS(=O)(=O)c1ccc(-c2cccc(NCc3ccc[nH]3)n2)cc1 [Compound 73] | 4.8 | 42.9 | 4.74 | 45.2 | 2.183 | 2.127 | 17100 | 15000 | 
CS(=O)(=O)c1ccc(-c2nc(NCc3cccs3)cnc2C(F)(F)F)cc1 [Compound 76] | 4.278 | 48.6 | 4.291 | 48.5 | 1.461 |  |  | 31600 | 
Cn1cccc1CNc1cccc(-c2ccc(S(C)(=O)=O)cc2)n1 [Compound 77] | 4.259 | 48.6 | 4.246 | 53.8 |  | 1.289 | 40900 |  | 
CS(=O)(=O)c1ccc(-c2cncc(SCc3ccco3)n2)cc1 [Compound 78] |  | 49.4 |  | 43.6 |  |  |  | 33500 | 
CS(=O)(=O)c1ccc(-n2ccc3cnc(NCc4cccs4)nc32)cc1 [Compound 80] | 3.33 | 52 | 3.382 | 45.5 | 0.4422 |  |  | 37800 | 
CS(=O)(=O)c1ccc(-c2cnc3ccn(Cc4ccco4)c3n2)cc1 [Compound 82] | 4.353 | 57.3 | 4.328 | 63.3 | 1.865 | 1.853 | 17600 | 17200 | 
CS(=O)(=O)c1ccc(-n2ccc3ccc(NCc4ccoc4)nc32)cc1 [Compound 83] | 3.241 | 57.9 | 3.278 | 53.5 | 0.284 |  |  |  | 52000
CSc1ccc(-c2cncc(NCc3cccs3)n2)cc1 [Compound 84] | 3.898 | 58 | 4.023 | 52.5 |  | 2.207 | 1790 |  | 
Cc1coc(CNc2cccc(-c3ccc(S(C)(=O)=O)cc3)n2)c1 [Compound 85] | 4.23 | 58.1 | 3.951 | 115 | 1.134 | 1.134 |  |  | 52000
CS(=O)(=O)c1ccc(-c2cccc(NCc3ccns3)n2)cc1 [Compound 87] | 4.854 | 61.9 | 4.881 | 56.5 | 1.97 | 1.899 | 50200 | 42600 | 
COc1ccc(NCc2cccs2)nc1-c1ccc(S(C)(=O)=O)nc1 [Compound 88] | 4.709 | 63.4 | 4.67 | 69.3 | 2.306 | 2.306 | 16000 | 16000 | 
